Laboratory results: article PMC11402896, “Developmental toxicity and estrogenic activity of antimicrobial phenolic-branched fatty acids using in silico simulations and in vivo and in vitro bioassay” (Frontiers in Toxicology, 2024)

What was measured:
[1] = tested on: gastric adenocarcinoma cells; design: method as in Günes-Bayir et al., 2018; details: dose-dependent manner at 0–100 µM; ref Günes-Bayir et al., 2018; cited from earlier work
[2] = tested on: chicken embryos; design: method as in Zhang et al., 2021; details: ref Zhang et al., 2021, cited from earlier work; for Mortality rate: chicken embryos, 50 μg/kg dosage
[3] = tested on: human fibroblast (WS-1); design: method as in Günes-Bayir et al., 2018; details: dose-dependent manner at 0–100 µM; ref Günes-Bayir et al., 2018; cited from earlier work
[4] = tested on: estrogen signaling pathway; details: cited from earlier work
[5] = tested on: MCF-7 cells; experiment: MCF-7 cell proliferation assay (estrogenic activity); type: cell-based; details: 10 and 100 nM, p < 0.05, positive control
Description: MCF-7 cells were grown and maintained as previously described ([Peng et al., 2018]). The EA of creosote, creosote-soy BCFA, and iso-oleic acid was investigated at 10 nM to 1 μM. We evaluated EA for newly synthesized phenolic soy BCFAs with a focus on those who have both good performances in antimicrobial activity and low developmental toxicity in the chicken embryo model. Chemicals were dissolved in DMSO and diluted to the test concentrations (0.1% DMSO). No treatment and VC (0.1% DMSO in cell medium) were included as controls. Fresh medium with test compounds was added on day 2 and refreshed every 2 days. After 6-day exposure, cell numbers were measured by MTT assay using a microplate spectrophotometer ([Peng et al., 2018]). The test was repeated in two independent trials with triplicates for each trial, and cell proliferation rates were calculated for each compound.
(§1) All data were reported as the mean ± standard deviation (SD) of at least two independent trials. The MCF-7 cell proliferation rates of each compound at different concentrations were compared using a one-way analysis of variance (ANOVA) followed by Dunnett’s test with the statistical software JMP 16.0. The developmental indexes (REEW, LSI, weights) and TBARS values obtained from chicken embryonic assays were evaluated by a one-way ANOVA followed by Dunnett’s test performed with JMP.

[6] = tested on: chicken embryo; experiment: Chicken embryonic assay (developmental toxicity, liver TBARS); type: in vivo; details: for LSI (%) (liver somatic index) / REEW (ratio of embryo to egg weight) / Weights (g) Embryo / Weights (g) Heart / Weights (g) Liver: mean ± SD
Description: In total, 124 fertilized Leghorn eggs were obtained from the University of Delaware research farm. […] On day 6, the eggs were candled, and a hole was drilled for injection of each chemical at two dosage levels, or VC at 0.2 mL. The hole was sealed with Duco Cement, and eggs were placed back in the egg incubator at 38°C and 60% relative humidity. Each test was repeated in two independent trials. The incubation ended on day 18, and the number of dead embryos was recorded during the incubation period. All embryos were dissected and evaluated for deformation, embryo mass, liver mass, heart mass, ratio of embryo to egg weight (REEW), liver somatic index (LSI), and TBARS levels as described in ([Zhang and Wu, 2022]). Each test was repeated in two independent trials and in duplicate for each trial.
as §1
The developmental toxicity of phenolic-soy BCFAs was evaluated at dosages reported for natural phenolics via a chicken embryo model ([Zhang et al., 2021]; [Zhang and Wu, 2022]). In the present study, 0.1% DMSO in PBS was used as VC.

[7] = chicken embryo day 18, dosage 3.1 μg/kg
[8] = chicken embryo day 18, dosage 31 μg/kg
[9] = chicken embryo day 18, egg injection day 6, dosage 3.1 μg/kg
[10] = chicken embryo day 18, egg injection day 6, dosage 31 μg/kg
[11] = chicken embryo day 18, egg injection day 6, dosage 31 μg/kg, listed as phenol

Compound: Cc1ccc(C(C)C)cc1O [Carvacrol]
- Reactive oxygen species generation [1]: induced reactive oxygen species generation
- TBARS levels in fetal chicken liver ([2]; 50 μg/kg): significantly increased TBARS levels
- Mortality rate [2]: 45.5%
- Reactive oxygen species generation [3]: induced reactive oxygen species generation
- Estrogenic activity (EA) ([4]; at 10^–12 M, ref Zhang et al., 2021): weak EA

Compound: C[C@]12CC[C@@H]3c4ccc(O)cc4CC[C@H]3[C@@H]1CC[C@@H]2O [E2, 17β-Estradiol]
- Cell proliferation rate compared with no treatment and VC [5]: significantly increased cell proliferation rates
- Concentration of highest EA ([4]; across the test range from 10^–15 to 10^–4 M, ref Peng et al., 2018): 10 nM
- Concentration of peak EA ([4]; our previous findings, ref not given): 10^−9 M

Compound: Oc1ccccc1 [Phenol]
- LSI (%) (liver somatic index) [6, 7]: 2.20 ± 0.25%
- REEW (ratio of embryo to egg weight) [6, 7]: 0.39 ± 0.014
- Weights (g) Embryo [6, 7]: 23.61 ± 2.74 g
- Weights (g) Heart [6, 7]: 0.21 ± 0.03 g
- Weights (g) Liver [6, 7]: 0.52 ± 0.12 g
- LSI (%) (liver somatic index) [6, 8]: 2.23 ± 0.23%
- REEW (ratio of embryo to egg weight) [6, 8]: 0.36 ± 0.029
- Weights (g) Embryo [6, 8]: 22.04 ± 2.54 g
- Weights (g) Heart [6, 8]: 0.22 ± 0.01 g
- Weights (g) Liver [6, 8]: 0.52 ± 0.04 g
- Malformation rate (%) [6, 9]: 0.0 (0) %
- Mortality rate (%) [6, 9]: 0.0 (0) %
- Mortality rate (%) ([6]; chicken embryo day 18, egg injection day 6, dosage 3.1 μg/kg, listed as phenol): no mortality
- Malformation rate (%) [6, 10]: 12.5 (1) %
- Mortality rate (%) [6, 10]: 0.0 (0) %
- Malformation rate (%) [6, 11]: deformed embryos (stunting) were observed
- Mortality rate (%) [6, 11]: no mortality

Compound: Cc1ccc(C(C)C)c(O)c1 [Thymol]
- Mortality rate [2]: no death was found
